According to patent US20090270342A1, “IMMUNOREGULATORY AGENT” (priority 2006, published 2009):

How the values were obtained:
Format in all cases: in vivo
[1] = system: anti-OVA-IgE, IgG1, IgG2a in serum; experiment: Anti-OVA antibody in serum of OVA/alum-sensitized mice (Experiment 4); conditions: for Anti-OVA-IgG1 in serum / Anti-OVA-IgG2a in serum / Anti-OVA-IgG1 in serum, relative value to control / Anti-OVA-IgG2a in serum, relative value to control: two weeks after the second sensitization
Protocol: (§1) In order to investigate the effect of lactosucorse on systemic immunity, antibody level in serum was measured. Similarly as in Experiment 1, female BALB/c mice (six weeks old) were preliminary reared for one week on “AIN-93G”, the same standard purified diet as used in Experiment 1. Successively, “NYU-KA OLIGO 700”, a saccharide composition comprising 71.4% (w/w), on a dry solid basis, of lactosucrose commercialized by Hayashibara Shoji Inc., Okayama, Japan, was incorporated into the above purified diet, in which corn starch equal to the amount of the saccharide composition comprising lactosucrose had been removed, to give a lactosucrose content of 2% (w/w) or 5% (w/w), and five to seven mice/group were allowed to ingest the resulting test diet freely. Mice, allowed to ingest “AIN-93G”, as the standard purified diet, were used as control. At 10 days after from starting the administration of the test diet, mice were sensitized to antigen by administrating 20 μg of ovalbumin (OVA) (grade V, commercialized by Sigma Corporation) as antigen and 4.5 mg of “IMJECT®”, alum commercialized by Pierce ThermoScientific as adjuvant, into the peritoneal cavity. Successively, 15 days after from the first sensitization, the second sensitization was carried out by the same procedure. The blood was collected from caudal vein of mice at one, two, and three weeks after from the second sensitization, the serum was collected by centrifugation, and the amount of IgE to OVA was measured by EIA. In the cases of IgG1 and IgG2a, the amount of antibody was measured using serum collected at two weeks after from the second sensitization. The IgE and IgG2a titers were measured by capture EIA and IgG1 titer was measured by indirect EIA. Each titer was calculated by calibration curve prepared by using anti-OVA mouse serum (IgE: 1.760 U/ml, IgG1: 128,000 U/ml, IgG2a: 7,040 u/ml) as a standard serum. The amounts of IgE at one, two, or three weeks after from the second sensitization are in Table 5, and the amounts of IgG1 and IgG2a of two weeks after from the second sensitization are in Table 6. The percentages in parentheses in tables mean a relative value to the antibody concentration in serum of the control mice.

[2] = system: spleen cells; experiment: Cytokine production by spleen cells of OVA-sensitized mice restimulated with OVA (Experiment 6)
Protocol: In order to investigate the effect of lactosucrose on systemic immunity, the ability for producing cytokines of spleen cells was measured. At two weeks after the second sensitization in Experiment 4, spleens were removed from the mice of the control group and the group administrated with lactosucrose and the spleen cells were adjusted to give a cell concentration of 1×10^7/ml, and then placed in a 24-well plate. At two days or four days after adding 50 μg/ml of OVA, the amounts of IFN-γ, interleukin-2 (IL-2), IL-4, interleukin-5 (IL-5), and IL-10 in the culture supernatant were determined by conventional EIAs using antibodies (commercialized by BD-Pharmingen) corresponding to those. The percentages in parentheses in Table 9 mean relative values to the concentrations of respective cytokines produced by spleen cells from the control mice.

[3] = system: anti-OVA-IgE, IgG1, IgG2a in serum; experiment: Induction of anti-OVA antibodies by third OVA sensitization in already sensitive mice (Experiment 7); conditions: for Anti-OVA-IgE in serum / Anti-OVA-IgG1 in serum / Anti-OVA-IgG2a in serum: two weeks after third sensitization of OVA-sensitive mice; for Anti-OVA-IgE in serum, relative to control / Anti-OVA-IgG1 in serum, relative to control / Anti-OVA-IgG2a in serum, relative to control: after third sensitization
Protocol: as §1
Considering the application of lactosucrose to allergic patients, mice which had been made sensitive to OVA by sensitizing with OVA were prepared and the suppressing effect of lactosucrose on the production of anti-OVA-IgE when exposed to OVA was investigated by allowing the above mice to ingest lactosucrose. Female BALB/c mice (six weeks old, five mice/group) were preliminary reared for one week on “AIN-93G”, the same standard purified diet as used in Experiment 1. Successively, similarly as in Experiment 4, 20 μg of OVA, and 4.5 mg of alum were administrated to the peritoneal cavity of the mice and further reared for two weeks on the above standard diet. Then, the second sensitization of OVA and alum was carried out by the same procedure as used in the first sensitization. After two weeks, the mice were reared for further six weeks on the test diet comprising 2% (w/w) or 5% (w/w) lactosucrose, used in Experiment 1. After checking the mice being sensitive to OVA by measuring the amount of IgE, OVA and alum were administrated to them by the same procedure as used in the first and second sensitizations. After rearing two weeks on the test diet, blood was collected from respective mice and the concentrations of anti-OVA-IgE, anti-OVA-IgG1, and anti-OVA-IgG2a were determined by the same method as used in Experiment 4.

[4] = Lactosucrose 5% (w/w) diet, 2 days after adding 50 μg/ml OVA
[5] = Lactosucrose 5% (w/w) diet, 4 days after adding 50 μg/ml OVA
[6] = Lactosucrose 5% (w/w), 2 days after
[7] = Lactosucrose 5% (w/w), 4 days after
[8] = Lactosucrose 5% (w/w), listed as lactosucrose

OC[C@H]1O[C@@H](O[C@H]2[C@H](O)[C@@H](O)[C@@H](O[C@]3(CO)O[C@H](CO)[C@@H](O)[C@@H]3O)O[C@@H]2CO)[C@H](O)[C@@H](O)[C@H]1O [Lactosucrose, β-D-galactosyl-(1,4)-α-D-glucosyl-(1,2)-β-D-fructoside]
Anti-OVA-IgE in serum ([1]; Lactosucrose 2% (w/w) diet, one week after the 2nd sensitization): 270 ± 160 U/ml
Anti-OVA-IgE in serum ([1]; Lactosucrose 2% (w/w) diet, three weeks after the 2nd sensitization): 110 ± 62 U/ml
Anti-OVA-IgE in serum ([1]; Lactosucrose 2% (w/w) diet, two weeks after the 2nd sensitization): 150 ± 35 U/ml
Anti-OVA-IgG1 in serum ([1]; Lactosucrose 2% (w/w) diet): 27 ± 10 ×10^4 U/ml
Anti-OVA-IgG2a in serum ([1]; Lactosucrose 2% (w/w) diet): 4.0 ± 3.4 ×10^4 U/ml
Anti-OVA-IgE in serum, relative value to control ([1]; Lactosucrose 2% (w/w), one week after the 2nd sensitization): (87%)
Anti-OVA-IgE in serum, relative value to control ([1]; Lactosucrose 2% (w/w), three weeks after the 2nd sensitization): (52%)
Anti-OVA-IgE in serum, relative value to control ([1]; Lactosucrose 2% (w/w), two weeks after the 2nd sensitization): (58%)
Anti-OVA-IgG1 in serum, relative value to control ([1]; Lactosucrose 2% (w/w)): (68%)
Anti-OVA-IgG2a in serum, relative value to control ([1]; Lactosucrose 2% (w/w)): (41%)
Anti-OVA-IgE in serum ([1]; Lactosucrose 5% (w/w) diet, one week after the 2nd sensitization): 290 ± 77 U/ml
Anti-OVA-IgE in serum ([1]; Lactosucrose 5% (w/w) diet, three weeks after the 2nd sensitization): 160 ± 57 U/ml
Anti-OVA-IgE in serum ([1]; Lactosucrose 5% (w/w) diet, two weeks after the 2nd sensitization): 120 ± 32 U/ml
Anti-OVA-IgG1 in serum ([1]; Lactosucrose 5% (w/w) diet): 28 ± 7.5 ×10^4 U/ml
Anti-OVA-IgG2a in serum ([1]; Lactosucrose 5% (w/w) diet): 4.8 ± 3.8 ×10^4 U/ml
Anti-OVA-IgE in serum, relative value to control ([1]; Lactosucrose 5% (w/w), one week after the 2nd sensitization): (94%)
Anti-OVA-IgE in serum, relative value to control ([1]; Lactosucrose 5% (w/w), three weeks after the 2nd sensitization): (48%)
Anti-OVA-IgE in serum, relative value to control ([1]; Lactosucrose 5% (w/w), two weeks after the 2nd sensitization): (46%)
Anti-OVA-IgG1 in serum, relative value to control ([1]; Lactosucrose 5% (w/w)): (70%)
Anti-OVA-IgG2a in serum, relative value to control ([1]; Lactosucrose 5% (w/w)): (49%)
IFN-γ produced by spleen cells [2, 4]: 1.1 ± 0.19 IU/ml
IL-2 produced by spleen cells [2, 4]: 290 ± 160 pg/mL
IL-4 produced by spleen cells [2, 4]: 32 ± 10 pg/mL
IL-10 produced by spleen cells [2, 4]: 0.83 ± 0.27 ng/mL
IFN-γ produced by spleen cells [2, 5]: 2.9 ± 0.91 IU/ml
IL-4 produced by spleen cells [2, 5]: 62 ± 31 pg/mL
IL-5 produced by spleen cells [2, 5]: 1.3 ± 0.32 ng/mL
IL-10 produced by spleen cells [2, 5]: 2.7 ± 0.32 ng/mL
IFN-γ produced by spleen cells, relative value to control [2, 6]: (113%)
IL-2 produced by spleen cells, relative value to control [2, 6]: (78%)
IL-4 produced by spleen cells, relative value to control [2, 6]: (107%)
IL-10 produced by spleen cells, relative value to control [2, 6]: (126%)
IFN-γ produced by spleen cells, relative value to control [2, 7]: (88%)
IL-4 produced by spleen cells, relative value to control [2, 7]: (63%)
IL-5 produced by spleen cells, relative value to control [2, 7]: (81%)
IL-10 produced by spleen cells, relative value to control [2, 7]: (123%)
Anti-OVA-IgE in serum ([3]; Lactosucrose 2% (w/w) diet): 1,450 ± 561 U/ml
Anti-OVA-IgG1 in serum ([3]; Lactosucrose 2% (w/w) diet): 678 ± 176 ×10^4 U/ml
Anti-OVA-IgG2a in serum ([3]; Lactosucrose 2% (w/w) diet): 12.4 ± 5.02 ×10^4 U/ml
Anti-OVA-IgE in serum, relative to control ([3]; Lactosucrose 2% (w/w)): (72%)
Anti-OVA-IgG1 in serum, relative to control ([3]; Lactosucrose 2% (w/w)): (111%)
Anti-OVA-IgG2a in serum, relative to control ([3]; Lactosucrose 2% (w/w)): (120%)
Anti-OVA-IgE in serum, relative to control ([3]; Lactosucrose 2% (w/w), listed as lactosucrose): 72%
Anti-OVA-IgE in serum ([3]; Lactosucrose 5% (w/w) diet): 1,250 ± 264 U/ml
Anti-OVA-IgG1 in serum ([3]; Lactosucrose 5% (w/w) diet): 365 ± 35.1 ×10^4 U/ml
Anti-OVA-IgG2a in serum ([3]; Lactosucrose 5% (w/w) diet): 5.77 ± 1.93 ×10^4 U/ml
Anti-OVA-IgE in serum, relative to control ([3]; Lactosucrose 5% (w/w)): (62%)
Anti-OVA-IgG1 in serum, relative to control ([3]; Lactosucrose 5% (w/w)): (60%)
Anti-OVA-IgG2a in serum, relative to control ([3]; Lactosucrose 5% (w/w)): (56%)
Anti-OVA-IgE in serum, relative to control [3, 8]: 62%
Anti-OVA-IgG1 in serum, relative to control [3, 8]: about 50%
Anti-OVA-IgG2a in serum, relative to control [3, 8]: about 50%
